Assay results published in patent US12527835B2, “Brevican-binding peptides for brain tumor imaging” (The Brigham and Women's Hospital, Inc., priority 2018, dated 2026).
Where a SMILES comes first, the peptide text is derived from it. [ ]: non-standard residue; d: D form.

How the values were obtained:
[1] = system: HEK-Bcan cells; assay: Flow cytometry blocking study with 50× molar excess of unlabeled peptide; format: cell-based, human; details: fluorescein-conjugated peptide 1 μM
Procedure: Cells were washed once with PBS and then, treated with 1 mL of 2.5 mM EDTA to dissociate the cells. The EDTA was removed by centrifugation, and PBS supplemented with 10% FBS was added to create a single-cell suspension. All peptide stocks were dissolved in DMSO, and stored at −20° C. in the dark. Cells were incubated with each peptide (at the desired final concentration, between 1-10 μM) for 3 hrs at 37° C. in the dark under constant rotation. After incubation, cells were washed 3× with PBS with 10% FBS (by centrifugation at 7000 rpm for 3 mins each). Then, cells were resuspended in 3.7% formaldehyde for fixation, and finally washed once with PBS. Cells were evaluated for peptide uptake (mean fluorescence intensity) by flow cytometry (10,000-20,000 events).
For blocking studies, cells were dissociated as described above and resuspended in cold PBS with 10% FBS. Cells were then incubated with a 50× molar excess of unlabeled peptide for 10 mins on ice, before adding the corresponding FITC-labeled peptide at a final concentration of 1 μM and incubated for 1.5 hrs on ice. Cells were then washed with cold PBS with 10% FBS, fixed and analyzed by flow cytometry.

[2] = system: BT188 glioma stem cells; assay: Peptide uptake in BT188 (BΔg-high) versus BT145 (BΔg-low) glioma stem cells, fluorescence imaging; format: cell-based, human; details: fluorescein-labeled peptides, 5 μM
Source text: FIGS. 3A-I. Peptide characterization for BΔg specificity in glioma stem cells. (a) Table summary listing the properties of 7 peptides (composed of 8 D-amino acid residues, SEQ ID NOs:3-9, in order of appearance) that were isolated from the OBOC library screen. MW=molecular weight; KD=Kyte-Doolittle scale for amino acid hydropathy (positive scores indicate […]) (Kyte and Doolittle, J. Mol. Biol. 157, 105-132 (1982)). (b) Chemical structure showing the linkage between the peptide and FITC. (c) Western blot analysis showing the level of BΔg and Bcan in human embryo kidney (HEK) cells, and Bcan-overexpressing HEK cells (HEK-Bcan). […] Each group was normalized to a no-blocking (vehicle) control. Statistics were performed using multiple t-tests, and significance was measured in comparison to each vehicle control (p<0.0001). (e) Uptake of fluorescein-labeled BTP-2, 7, 8, 9, and 10 (at 5 μM conc.) in BT188 (BΔg-high) or BT145 (BΔg-low) glioma stem cells (GSCs). Western blot analysis on the top right confirms the BΔg expression level. […] Statistics were performed using the two-way ANOVA and Tukey's Multiple Comparison test. (f) Chemical structure showing the linkage between the peptide and Cy5.5 dye. (g) Western blot analysis showing the expression of BΔg in GBM-6 cells, with negligible BΔg level in astrocytes or neural progenitor cells (NPC). (h) Graph showing the cell uptake ranking of the top 3 peptide candidates, BTP-7, 8 and 9 in GBM-6 cells as determined by flow cytometry analysis with s.d. error bars (5 μM conc.; nevents=20,000 cells; nexperiment=5). Each group is normalized to the control scramble peptide (Scr-8). Statistics were performed using the one-way ANOVA and Tukey's Multiple Comparison test (significance were measured in comparison to the Scr-8 control). (i) Bar graph showing the uptake of BTP-7, 8 and 9 in GBM-6 cells and NPC with 95% confidence interval error bars (1 μM conc.; nevents=20,000 cells). Statistics were performed using the two-way ANOVA and Sidak's Multiple Comparison test.

SMILES: CC[C@@H](C)[C@@H](NC(=O)[C@H](N)[C@H](C)O)C(=O)N[C@H](CCCNC(=N)N)C(=O)N[C@H](CCCCN)C(=O)N[C@H](CC(C)C)C(=O)N[C@@H](C(=O)N[C@H](CCCNC(=N)N)C(=O)N[C@H](Cc1c[nH]cn1)C(N)=O)C(C)C [BTP-8] (H-[dT][dI][dR][dK][dL][dV][dR][dH]-NH2; N-terminus and C-terminus assumed)
- uptake in HEK-Bcan cells in the presence of the blocking peptide [1]: reduced uptake
- size of the difference in uptake between BT188 and BT145 GSCs (ranking) [2]: largest and most significant difference
- uptake in BT188 GSCs compared with BT145 GSCs [2]: greater uptake
